Test results: patent US8476455B2, “1-N-phenyl-amino-1h-imidazole derivatives and pharmaceutical compositions containing them” (Laboratoire Theramex, priority 2003, dated 2013)

Columns and labels:
human aromatase [1] = target: T1, human aromatase (Homo sapiens, UniProt P11511); test: Aromatase activity alone, tritiated water method in JEG-3 cells; type: cell-based; settings: footnote a: aromatase activity alone, nd: not detected, read-out: Aromatase activity IC50 (nM) ± S.E.M.
T1 construct: The JEG-3 cell line, derived from a human placental choriocarcinoma, constitutively overexpresses human aromatase; endogenous in cells; host or cells: JEG-3 (human placental choriocarcinoma)
T1 sequence (P11511 1-503): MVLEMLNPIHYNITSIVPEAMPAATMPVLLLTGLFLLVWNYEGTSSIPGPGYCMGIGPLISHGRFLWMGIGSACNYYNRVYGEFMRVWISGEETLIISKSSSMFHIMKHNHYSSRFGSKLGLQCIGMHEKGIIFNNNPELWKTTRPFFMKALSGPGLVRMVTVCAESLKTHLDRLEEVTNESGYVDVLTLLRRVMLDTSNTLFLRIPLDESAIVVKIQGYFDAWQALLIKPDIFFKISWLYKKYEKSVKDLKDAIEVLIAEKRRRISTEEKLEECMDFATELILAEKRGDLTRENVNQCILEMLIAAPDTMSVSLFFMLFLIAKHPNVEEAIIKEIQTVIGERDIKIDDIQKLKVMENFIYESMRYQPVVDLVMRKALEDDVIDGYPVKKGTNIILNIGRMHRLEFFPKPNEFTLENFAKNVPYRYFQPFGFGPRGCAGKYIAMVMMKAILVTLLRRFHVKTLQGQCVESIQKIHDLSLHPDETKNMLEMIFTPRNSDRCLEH
Description: The JEG-3 cell line, derived from a human placental choriocarcinoma, constitutively overexpresses human aromatase and represents a relevant model for assaying putative aromatase inhibitors in vitro. Aromatase activity was determined by the tritiated water method. In brief, cells were first seeded into 96-well microplates in decomplemented fetal calf serum (dFCS) supplemented medium. 24 hours later, cells were rinsed and fresh medium containing 1β-^3H-androstenedione as aromatase substrate was added together with test compounds at concentrations ranging from 10^−12 M to 10^−5 M. After 2 hours of incubation, a fraction of the medium was transferred to homologous new 96-well microplates and a dextran-coated charcoal solution was added to each well. Following standing on ice for 10 minutes, microplates were centrifuged (1500 g; 4° C.). All steroids, including the radioactive substrate and the newly biosynthesized estrogens, were adsorbed on charcoal; only ^3H-water specifically formed during aromatisation of 1β-^3H-androstenedione, remained in the supernatant. The radioactivity in the supernatant was measured by liquid scintillation counting. In parallel, cell solubilization was performed in ethylenediamine tetraacetate solution. […] Finally, aromatase activity was expressed in fmoles of ^3H-water formed/2 hours/μg DNA and aromatase inhibition as a percentage of control activity without inhibitor.

human aromatase [2] = target: T1, human aromatase; test: Dual aromatase and steroid sulfatase activities in JEG-3 cells: aromatase readout; type: cell-based; settings: footnote c: dual aromatase and sulfatase activity, nd: not detected, read-out: Aromatase activity IC50 (nM) ± S.E.M.
Description: Assays were carried out with cells in logarithmic growth phase on 96-well microplates. 24 h before studies, cells were seeded in decomplemented fetal calf serum (dFCS) supplemented medium. The medium was removed 24 h later and cells were rinsed with PBS to eliminate any trace of dFCS. Then, ^3H-E1S was added in dFCS free medium, followed by test compounds at concentrations ranging from 10^−12 M to 10^−5 M. After 4 h of treatment, the medium was transferred into 96-deep-well microplates and centrifuged at 200×g for 10 min to pellet cells before toluene extraction. A fraction of the medium was used for toluene extraction in order to separate the conjugated substrate from non-conjugated products. The radioactivity in the toluene phase was measured by liquid scintillation counting. […] Finally, estrone sulfatase activity was expressed in pmoles of ^3H-E1+^3H-E2 formed/4 hours/mg DNA and estrone sulfatase inhibition as a percentage of control activity without inhibitor.
In order to evaluate the inhibitory potency of DASI compounds in parallel on both human aromatase and steroid sulfatase activities, a new in vitro model was set up using JEG-3 cells. The experimental conditions of the steroid sulfatase model previously described was adopted with slight modifications: the presence of the two substrates ^3-HE1S and 1β-^3H-androstenedione into the medium and an incubation period of 2 hours. Results were expressed in pmoles of product formed (^3H-E1+^3H-E2 or ^3H2O)/2 hours/mg DNA (Table 1).

Row | IC50 (human aromatase [1]) [nM] | melting point [°C] | IC50 (human aromatase [2]) [nM] | Compound
1 | 0.17 ± 0.01 |  |  | N#Cc1ccc(N(Cc2ccc(O)cc2)n2ccnc2)cc1 [Ex 11, 4-[N-(4-hydroxyphenylmethyl)-N-(1H-imidazol-1-yl)amino]benzonitrile]
2 |  | 195 |  | N#Cc1ccc(N(Cc2ccc(O)c(Cl)c2)n2ccnc2)cc1 [Ex 12, 4-[N-(3-chloro-4-hydroxyphenylmethyl)-N-(1H-imidazol-1-yl)amino]benzonitrile]
3 | 0.17 ± 0.03 | 198 | 0.05 ± 0.02 | N#Cc1ccc(N(Cc2ccc(O)c(Br)c2)n2ccnc2)cc1 [Ex 13, 4-[N-(3-bromo-4-hydroxyphenylmethyl)-N-(1H-imidazol-1-yl)amino]benzonitrile]
4 | 0.21 ± 0.05 | 215 |  | COc1cc(CN(c2ccc(C#N)cc2)n2ccnc2)ccc1O [Ex 14, 4-[N-(4-hydroxy-3-methoxyphenylmethyl)-N-(1H-imidazol-1-yl)amino]benzonitrile]
5 |  | 243 |  | N#Cc1ccc(N(Cc2c(F)c(F)c(O)c(F)c2F)n2ccnc2)cc1 [Ex 15, 4-[N-(2,3,5,6-tetrafluoro-4-hydroxyphenylmethyl)-N-(1H-imidazol-1-yl)amino]benzonitrile]
6 |  | 160 |  | N#Cc1ccc(N(Cc2ccc(O)c(C=O)c2)n2ccnc2)cc1 [Ex 16, 4-[N-(3-formyl-4-hydroxyphenylmethyl)-N-(1H-imidazol-1-yl)amino]benzonitrile]
7 |  | 156 |  | N#Cc1ccc(N(Cc2ccc(Cl)nc2)n2ccnc2)cc1 [Ex 18, 4-{N-[(6-chloropyridin-3-yl)methyl]-N-(1H-imidazol-1-yl)amino}benzonitrile]
8 |  | 150 |  | N#Cc1ccc(N(Cc2ccc(S(N)(=O)=O)cc2)n2ccnc2)cc1 [Ex 19, 4-{[N-(4-cyanophenyl)-N-(1H-imidazol-1-yl)amino]methyl}benzene sulfonamide]
9 | 0.3 | 205 |  | N#Cc1ccc(N(Cc2ccc(O)c([N+](=O)[O-])c2)n2ccnc2)cc1 [Ex 20, 4-[N-(4-hydroxy-3-nitrophenylmethyl)-N-(1H-imidazol-1-yl)amino]benzonitrile]
10 |  | 187 |  | COc1ccc(CN(c2ccc(C#N)cc2)n2ccnc2)cc1C(=O)O [Ex 21, 5-{[N-(4-cyanophenyl)-N-(1H-imidazol-1-yl)amino]methyl}-2-methoxybenzoic acid]
11 | 0.32 ± 0.4 |  |  | N#Cc1ccc(N(c2ccc([N+](=O)[O-])cc2)n2ccnc2)cc1 [Ex 22, 4-[N-(1H-imidazol-1-yl)-N-(4-nitrophenyl)amino]benzonitrile]
12 |  | 132 |  | N#Cc1ccc(N(C(=O)c2ccc(Cl)nc2)n2ccnc2)cc1 [Ex 23, 6-chloro-N-(4-cyanophenyl)-N-(1H-imidazol-1-yl)nicotinamide]
13 |  | 131 |  | N#Cc1ccc(N(C(=O)Cc2ccc(F)cc2)n2ccnc2)cc1 [Ex 24, N-(1H-imidazol-1-yl)-N-(4-cyanophenyl)-2-(4-fluorophenyl)acetamide]
14 | 50.6 | 172 |  | N#Cc1ccc(N(C(=O)CCc2ccc(O)cc2)n2ccnc2)cc1 [Ex 26, N-(4-cyanophenyl)-3-(4-hydroxyphenyl)-N-(1H-imidazol-1-yl)propanamide]
15 |  | 104 |  | COc1ccc2c(CC(=O)N(c3ccc(C#N)cc3)n3ccnc3)csc2c1 [Ex 29, N-(4-cyanophenyl)-N-(1H-imidazol-1-yl)-2-(6-methoxy-benzothien-3-yl)acetamide]
16 |  |  | 0.06 | COc1ccc2c(CN(c3ccc(C#N)cc3)n3ccnc3)csc2c1 [Ex 30, 4-{N-[1H-imidazol-1-yl]-N-[(6-methoxy-benzothien-3-yl)methyl]amino}benzonitrile]
17 |  | 179 |  | N#Cc1ccc(N(C(=O)Cc2csc3cc(O)ccc23)n2ccnc2)cc1 [Ex 34, N-(4-cyanophenyl)-N-(1H-imidazol-1-yl)-2-(6-hydroxy-benzothien-3-yl)acetamide]
18 |  |  | 2.2 ± 0.7 | N#Cc1ccc(N(Cc2ccc(O)c(N)c2)n2ccnc2)cc1 [Ex 35, 4-[N-(3-amino-4-hydroxy-phenylmethyl)-N-(1H-imidazol-1-yl)amino]benzonitrile]
19 |  | 188 | 0.61 ± 0.21 | N#Cc1ccc(N(CCOc2ccc(O)cc2)n2ccnc2)cc1 [Ex 36, 4-{N-[2-(4-hydroxyphenoxy)ethyl]-N-(1H-imidazol-1-yl)amino}benzonitrile]
20 |  | 248 | 52 ± 9.6 | N#Cc1ccc(N(n2ccnc2)S(=O)(=O)c2ccc(O)cc2)cc1 [Ex 37, N-(4-cyanophenyl)-N-(1H-imidazol-1-yl)-4-hydroxybenzensulfonamide]
21 |  | 230 |  | N#Cc1ccc(N(Cc2cc3ccc(O)cc3s2)n2ccnc2)cc1 [Ex 39, 4-[N-[(6-hydroxy-benzothien-2-yl)methyl]-N-(1H-imidazol-1-yl)amino]benzonitrile]
22 | 0.67 ± 0.1 |  |  | N#Cc1ccc(N(c2ccc(N)cc2)n2ccnc2)cc1 [Ex 40, 4-[N-(4-aminophenyl)-N-(1H-imidazol-1-yl)amino]benzonitrile]
23 |  |  | 4.3 | N#Cc1ccc(N(C(=O)c2cc3cc(N)ccc3s2)n2ccnc2)cc1 [Ex 41, 5-Amino-[N-(4-cyanophenyl)-N-(1H-imidazol-1-yl)]-benzothiophene-2-carboxamide]
24 |  | 121 |  | N#Cc1ccc(N(c2ccc(NS(N)(=O)=O)cc2)n2ccnc2)cc1 [Ex 49, N-{4-[N-(4-cyanophenyl)-N-(1H-imidazol-1-yl)amino]phenyl}sulfamide]
25 |  | 197 |  | N#Cc1ccc(N(Cc2ccc(OS(N)(=O)=O)cc2NS(N)(=O)=O)n2ccnc2)cc1 [Ex 54, Sulfamic acid 3-(aminosulfonyl)amino-4-{[N-(4-cyanophenyl)-N-(1H-imidazol-1yl)amino]methyl}phenyl ester]
26 |  | 172 |  | N#Cc1ccc(N(C2=CS(=O)(=O)c3cc(OS(N)(=O)=O)ccc32)n2ccnc2)cc1 [Ex 56, Sulfamic acid 3-[N-(4-cyanophenyl)-N-(1H-imidazol-1yl)amino]-1,1-dioxido-benzothien-6-yl ester]
27 |  | 193 |  | N#Cc1ccc(N(Cc2csc3cc(OS(N)(=O)=O)ccc23)n2ccnc2)cc1 [Ex 58, Sulfamic acid 3-{[N-(4-cyanophenyl)-N-(1H-imidazol-1yl)amino]methyl}-benzothien-6-yl ester]
28 |  | 178 |  | N#Cc1ccc(N(Cc2cc3ccc(OS(N)(=O)=O)cc3s2)n2ccnc2)cc1 [Ex 59, Sulfamic acid 2-{[N-(4-cyanophenyl)-N-(1H-imidazol-1yl)amino]methyl}-benzothien-6-yl ester]
29 | 1.06 ± 0.21 |  |  | N#Cc1ccc(N(Cc2ccc3c(c2)CNS(=O)(=O)O3)n2ccnc2)cc1 [Ex 61, 4-[N-[(2,2-dioxido-3,4-dihydro-1,2,3-benzoxathiazin-6-yl)methyl]-N-(1H-imidazol-1-yl)amino]benzonitrile]
30 |  |  | 81.8 | N#Cc1ccc(N(Cc2ccc(O)c(C(=O)O)c2)n2ccnc2)cc1 [Ex 62, 5-{[N-(4-cyanophenyl)-N-(1H-imidazol-1-yl)amino]methyl}-2-hydroxybenzoic acid]
